This passage reports IC50 results from patent US20260317356A1, “SMALL MOLECULE MODULATORS OF OGG1” (AZKARRA THERAPEUTICS, INC., priority 2023, published 2026).

hOGG1, sequence (O15527 12-323): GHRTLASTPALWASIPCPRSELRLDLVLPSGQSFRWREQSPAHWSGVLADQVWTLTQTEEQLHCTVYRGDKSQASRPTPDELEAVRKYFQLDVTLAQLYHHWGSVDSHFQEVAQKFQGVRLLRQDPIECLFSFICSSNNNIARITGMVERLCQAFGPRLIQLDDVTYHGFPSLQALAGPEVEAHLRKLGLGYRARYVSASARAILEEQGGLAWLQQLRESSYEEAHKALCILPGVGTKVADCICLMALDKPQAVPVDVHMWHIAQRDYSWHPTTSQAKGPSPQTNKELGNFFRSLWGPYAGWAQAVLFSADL

This assay addresses hOGG1 (Homo sapiens, UniProt O15527). Kind of assay: Biochemical fluorescence assay to measure enzymatic activity of hOGG1 (OGG1/APEX IC50). The arrangement: Protein His-hOGG1 (12-323) was prepared; His (N); host or cells: E. coli. The settings on record: 1 nM OGG1+2 nM APEX+6 nM dsDNA (8-oxo-dG substrate); pH 7.5; RT 40 min; read-out: OGG1/APEX IC50. The essentials:
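His-hOGG1 (12-323, E. coli) at 1 nM with 2 nM hAPE1/APEX1, preincubated 20 min RT with compound. Then 6 nM 8-oxo-dG dsDNA substrate added, 40 min at RT in Tris pH 7.5, 100 mM KCl. TAMRA fluorescence (Ex520/Em600) converted to % inhibition vs controls; IC50 from 3-parameter fit of 10-point curve.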
On to `COc1ccc(NC(=O)[C@]2(C)CC[C@H](N3Cc4c(C)ccc(OC)c4NC3=O)CC2)cc1Cl` (single isomer, unassigned) [Example 7, (1s,4s)-N-(3-chloro-4-methoxyphenyl)-4-(8-methoxy-5-methyl-2-oxo-1,2-dihydroquinazolin-3(4H)-yl)-1-methylcyclohexanecarboxamide], for which the IC50 was under 100 nM.

On to `COc1ccc(NC(=O)[C@]2(C)CC[C@H](N3Cc4c(C)ccc(OC)c4NC3=O)CC2)cc1C#N` (single isomer, unassigned) [Example 9, (1s,4s)-N-(3-cyano-4-methoxyphenyl)-4-(8-methoxy-5-methyl-2-oxo-1,2-dihydroquinazolin-3(4H)-yl)-1-methylcyclohexanecarboxamide], for which the IC50 was under 100 nM.

For the molecule `COc1ccc(NC(=O)[C@]2(C)CC[C@H](N3Cc4c(C)ccc(OC)c4NC3=O)CC2)cc1C` (single isomer, unassigned) [Example 11, (1s,4s)-N-(3-methyl-4-methoxyphenyl)-4-(8-methoxy-5-methyl-2-oxo-1,2-dihydroquinazolin-3(4H)-yl)-1-methylcyclohexanecarboxamide], the IC50 is under 100 nM.

In the case of `COc1ccc(NC(=O)[C@]2(C)CC[C@H](N3Cc4c(C)cccc4NC3=O)CC2)cc1Cl` (single isomer, unassigned) [Example 103, (1s,4s)-N-(3-chloro-4-methoxyphenyl)-1-methyl-4-(5-methyl-2-oxo-1,2-dihydroquinazolin-3(4H)-yl)cyclohexanecarboxamide], the IC50 was under 100 nM.

Take `COc1ccc(NC(=O)[C@H]2CC[C@@H](N3Cc4c(C)ccc(OC)c4NC3=O)CC2)cc1C#N` [Example 2, (1s,4s)-N-(3-Cyano-4-methoxyphenyl)-4-(8-methoxy-5-methyl-2-oxo-1,2-dihydroquinazolin-3(4H)-yl)cyclohexanecarboxamide]: the IC50 is 100 to 1000 nM.

As to `COc1ccc(NC(=O)[C@H]2CC[C@@H](N3Cc4c(C)ccc(OC)c4NC3=O)CC2)cc1Cl` [Example 3, (1s,4s)-N-(3-Chloro-4-methoxyphenyl)-4-(8-methoxy-5-methyl-2-oxo-1,2-dihydroquinazolin-3(4H)-yl)cyclohexanecarboxamide], the IC50 was 100 to 1000 nM.

For the molecule `COc1ccc(NC(=O)[C@H]2CC[C@@H](N3Cc4c(C)ccc(OC)c4NC3=O)CC2)cc1C` [Example 4, (1s,4s)-N-(3-Methyl-4-methoxyphenyl)-4-(8-methoxy-5-methyl-2-oxo-1,2-dihydroquinazolin-3(4H)-yl)cyclohexanecarboxamide], the IC50 is 100 to 1000 nM.

In the case of `COc1cc(NC(=O)[C@H]2CC[C@@H](N3Cc4c(C)ccc(P(C)(C)=O)c4NC3=O)CC2)ccc1C` [Example 5, (1s,4s)-4-(8-(Dimethylphosphoryl)-5-methyl-2-oxo-1,2-dihydroquinazolin-3(4H)-yl)-N-(3-methoxy-4-methylphenyl)cyclohexanecarboxamide], the IC50 was 100 to 1000 nM.

Consider `COc1cc(NC(=O)[C@]2(C)CC[C@H](N3Cc4c(C)ccc(OC)c4NC3=O)CC2)ccc1C` [Example 13, (1s,4s)-N-(3-Methoxy-4-methylphenyl)-4-(8-methoxy-5-methyl-2-oxo-1,2-dihydroquinazolin-3(4H)-yl)-1-methylcyclohexanecarboxamide], for which the IC50 lay in the range of 100 to 1000 nM.

Take `COc1ccc(NC(=O)[C@H]2CC[C@@H](N3Cc4c(C)ccnc4NC3=O)CC2)cc1Cl` [Example 14, (1s,4s)-N-(3-Chloro-4-methoxyphenyl)-4-(5-methyl-2-oxo-1,2-dihydropyrido[2,3-d]pyrimidin-3(4H)-yl)cyclohexanecarboxamide]: the IC50 fell in the range of 100 to 1000 nM.

Turning to `COc1ccc(NC(=O)[C@H]2CC[C@@H](N3Cc4c(C)ccnc4NC3=O)CC2)cc1` [Example 15, (1s,4s)-N-(4-methoxyphenyl)-4-(5-methyl-2-oxo-1,2-dihydropyrido[2,3-d]pyrimidin-3(4H)-yl)cyclohexanecarboxamide], the IC50 lay in the range of 1000 to 10000 nM.

`COc1ccc(NC(=O)[C@H]2CC[C@@H](N3Cc4c(C)ccnc4NC3=O)CC2)cc1C` [Example 16, (1s,4s)-N-(4-Methoxy-3-methylphenyl)-4-(5-methyl-2-oxo-1,2-dihydropyrido[2,3-d]pyrimidin-3(4H)-yl)cyclohexanecarboxamide]: the IC50 is under 100 nM.

In the case of `COc1cc(NC(=O)[C@H]2CC[C@@H](N3Cc4c(C)ccc(CNC(C)=O)c4NC3=O)CC2)ccc1C` [Example 17, (1s,4s)-4-(8-(Acetamidomethyl)-5-methyl-2-oxo-1,2-dihydroquinazolin-3(4H)-yl)-N-(3-methoxy-4-methylphenyl)cyclohexanecarboxamide], the IC50 was under 100 nM.

As for `COc1cc(NC(=O)[C@H]2CC[C@@H](N3Cc4c(C)cnc(CNC(C)=O)c4NC3=O)CC2)ccc1C` [Example 19, (1s,4s)-4-(8-(Acetamidomethyl)-5-methyl-2-oxo-1,2-dihydropyrido[3,4-d]pyrimidin-3(4H)-yl)-N-(3-methoxy-4-methylphenyl)cyclohexanecarboxamide], the IC50 is under 100 nM.

`COc1cc(NC(=O)[C@H]2CC[C@@H](N3Cc4c(C)cc(CN)cc4NC3=O)CC2)ccc1C` [Example 28, (1s,4s)-4-(7-(Aminomethyl)-5-methyl-2-oxo-1,2-dihydroquinazolin-3(4H)-yl)-N-(3-methoxy-4-methylphenyl)cyclohexanecarboxamide]: the IC50 is under 100 nM.

With `COc1cc(NC(=O)[C@H]2CC[C@@H](N3Cc4c(C)cc(N5CC6(COC6)C5)cc4NC3=O)CC2)ccc1C` [Example 30, (1s,4s)-N-(3-Methoxy-4-methylphenyl)-4-(5-methyl-2-oxo-7-(2-oxa-6-azaspiro[3.3]heptan-6-yl)-1,2-dihydroquinazolin-3(4H)-yl)cyclohexanecarboxamide], the IC50 is under 100 nM.

With `COc1cc(NC(=O)[C@H]2CC[C@@H](N3Cc4c(C)ccc(N5CC6(COC6)C5)c4NC3=O)CC2)ccc1C` [Example 35, (1s,4s)-N-(3-Methoxy-4-methylphenyl)-4-(5-methyl-2-oxo-8-(2-oxa-6-azaspiro[3.3]heptan-6-yl)-1,2-dihydroquinazolin-3(4H)-yl)cyclohexanecarboxamide], the IC50 lay within 100 to 1000 nM.

For `COc1cc(NC(=O)[C@H]2CC[C@@H](N3Cc4c(C)ccnc4NC3=O)CC2)ccc1C` [Example 41, (1s,4s)-N-(3-Methoxy-4-methylphenyl)-4-(5-methyl-2-oxo-1,2-dihydropyrido[2,3-d]pyrimidin-3(4H)-yl)cyclohexanecarboxamide], the IC50 was under 100 nM.

As to `COc1cc(NC(=O)[C@H]2CC[C@@H](N3Cc4c(C)ccc(OCC5CNC5)c4NC3=O)CC2)ccc1C` [Example 44, (1s,4s)-4-(8-(Azetidin-3-ylmethoxy)-5-methyl-2-oxo-1,2-dihydroquinazolin-3(4H)-yl)-N-(3-methoxy-4-methylphenyl)cyclohexanecarboxamide], the IC50 is under 100 nM.

Regarding `COc1cc(NC(=O)[C@H]2CC[C@@H](N3Cc4c(C)ccc(OC5CNC5)c4NC3=O)CC2)ccc1C` [Example 45], the IC50 is under 100 nM.

With `COc1cc(NC(=O)[C@H]2CC[C@@H](N3Cc4c(C)ccc(OC)c4NC3=O)CC2)ccc1C` [Example 47, (1s,4s)-N-(3-Methoxy-4-methylphenyl)-4-(8-methoxy-5-methyl-2-oxo-1,2-dihydroquinazolin-3(4H)-yl)cyclohexanecarboxamide], the IC50 was under 100 nM.
